Assay results from publication PMC8948676, “Dihydropyridines Potentiate ATP-Induced Currents Mediated by the Full-Length Human P2X5 Receptor” (Molecules, 2022).

Experiments:
[1] = target: T1, full-length human P2X5 receptor (hP2X5^FL) (Homo sapiens, UniProt Q93086, F216L/F232L); assay: cell-based; set-up: gene P2RX5
[2] = target: T1, full-length human P2X5 receptor (hP2X5^FL); assay: two-microelectrode voltage clamp, Xenopus laevis oocytes; potentiation of ATP-induced current at […]; assay type: cell-based; set-up: gene P2RX5; His-hP2X5^FL, full-length 444 residues including exon 10 (residues 328–349), N-terminal hexahistidine tag; homotrimer
[3] = target: T1, full-length human P2X5 receptor (hP2X5^FL); assay: two-microelectrode voltage clamp, Xenopus laevis oocytes (agonist concentration-response); assay type: cell-based; set-up: gene P2RX5; His-hP2X5^FL, full-length 444 residues including exon 10 (residues 328–349), N-terminal hexahistidine tag; homotrimer

T1 sequence (Q93086 whole entry F216L/F232L, the tested form may be a part): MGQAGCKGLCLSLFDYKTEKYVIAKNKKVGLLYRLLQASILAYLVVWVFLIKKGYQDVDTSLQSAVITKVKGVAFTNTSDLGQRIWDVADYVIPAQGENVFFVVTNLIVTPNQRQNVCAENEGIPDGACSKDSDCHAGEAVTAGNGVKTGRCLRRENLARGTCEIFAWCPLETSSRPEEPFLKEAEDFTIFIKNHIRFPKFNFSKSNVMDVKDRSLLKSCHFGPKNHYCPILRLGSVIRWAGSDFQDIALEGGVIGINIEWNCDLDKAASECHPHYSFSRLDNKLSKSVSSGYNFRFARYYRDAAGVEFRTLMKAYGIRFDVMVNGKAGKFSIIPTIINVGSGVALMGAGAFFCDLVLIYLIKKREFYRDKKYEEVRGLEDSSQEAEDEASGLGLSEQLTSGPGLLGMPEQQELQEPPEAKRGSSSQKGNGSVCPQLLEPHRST

Nc1ncnc2c1ncn2[C@@H]1O[C@H](COP(=O)(O)OP(=O)(O)OP(=O)(O)O)[C@@H](O)[C@H]1O [ATP]
EC50 [1]: ~39 µM

COC(=O)C1=C(C)NC(C)=C(C(=O)OC(C)C)C1c1cccc2nonc12 (stereo not drawn) [isradipine]
two-microelectrode voltage clamp, Xenopus laevis oocytes; potentiation of ATP-in [2]: In contrast, isradipine and nimodipine stimulated the ATP-induced currents.

Nc1ncnc2c1ncn2[C@@H]1O[C@H](COP(=O)(O)OP(=O)(O)OP(=O)(O)O)[C@@H](OC(=O)c2ccc(C(=O)c3ccccc3)cc2)[C@H]1O [BzATP]
two-microelectrode voltage clamp, Xenopus laevis oocytes (agonist concentration- [3]: BzATP, displayed a higher affinity for hP2X5^FL than ATP but a lower efficacy
